The target of assay [1] is T1, dopamine D2 (dopamine autoreceptor) (Rattus norvegicus, UniProt P61169).
T1 construct: homogenized rat striatal brain tissue; from tissue; host or cells: rat striatal brain tissue, homogenized
Put plainly: Affinity for the dopamine autoreceptor: 3H-quinpirole (Quin.) binding, homogenized rat striatal brain tissue. As for the experimental part: Affinity for the dopamine autoreceptor was established by a modification of the standard experimental test procedure of Seamen and Schaus, European Journal of Pharmacology 203, 105-109, 1991, wherein homogenized rat striatal brain tissue is incubated with ^3 H-quinpirole (Quin.) and various concentrations of test compound, filtered and washed and counted in a Betaplate scintillation counter.

The target of another assay is T2, dopamine D-2 receptor (Rattus norvegicus, UniProt P61169).
T2 construct: homogenized limbic brain tissue; from tissue; host or cells: limbic brain tissue, homogenized
T2 sequence (P61169 whole entry): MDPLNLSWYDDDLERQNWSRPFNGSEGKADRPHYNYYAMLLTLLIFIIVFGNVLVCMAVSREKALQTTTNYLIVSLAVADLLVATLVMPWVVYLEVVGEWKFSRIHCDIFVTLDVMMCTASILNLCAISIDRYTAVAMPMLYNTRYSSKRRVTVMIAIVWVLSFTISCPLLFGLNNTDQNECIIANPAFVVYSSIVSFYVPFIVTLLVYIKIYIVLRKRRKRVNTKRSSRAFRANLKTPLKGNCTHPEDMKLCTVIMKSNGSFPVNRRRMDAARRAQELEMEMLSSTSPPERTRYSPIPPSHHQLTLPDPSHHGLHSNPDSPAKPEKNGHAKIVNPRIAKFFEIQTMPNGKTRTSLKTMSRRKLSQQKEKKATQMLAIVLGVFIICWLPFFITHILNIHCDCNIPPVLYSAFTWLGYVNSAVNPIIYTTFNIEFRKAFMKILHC
Briefly: High affinity for the dopamine D-2 receptor: 3H-spiroperidol (Spiper.) binding, homogenized limbic brain tissue. Particulars: read-out: IC50 (nM) D2 Spiper. As for the experimental part:
High affinity for the dopamine D-2 receptor was established by the standard experimental test procedure of Fields, et al., Brain Res., 136, 578 (1977) and Yamamura et al., eds., Neurotranrutter Receptor Binding, Raven Press, N.Y. (1978) wherein homogenized limbic brain tissue is incubated with ^3 H-spiroperidol (Spiper.) and various concentrations of test compound, filtered and washed and shaken with Hydrofluor scintillation cocktail (National Diagnostics) and counted in a Packard 460 CD scintillation counter.

Broadly, the IC50 is the midpoint of a concentration-inhibition curve.

T1 sequence (P61169 whole entry): as above

Consider `O=c1[nH]c2cccc(OCCNCc3ccc(Cl)cc3)c2[nH]c1=O` [Example 2, 5-[2-(4-Chloro-benzylamino)-ethoxy]-1,4-dihydro-quinoxaline-2,3-dione], for which the IC50 in assay [1] was 64.6 nM.
Regarding `O=c1[nH]c2cccc(OCCNCc3ccccc3)c2[nH]c1=O` [Example 1, 5-(2-Benzylamino-ethoxy)-1,4-dihydro-quinoxaline-2,3-dione], the IC50 in assay [1] turned out to be 20.8 nM; on dopamine D-2 receptor, 2190 nM.

The values are drawn from US5922715A, “5-aminoalkoxy-1, 4-dihydroquinoxaline-2, 3-diones” (American Home Products Corporation, priority 1998, dated 1999).
